Laboratory results as given in patent US20120164671A1, “METHODS FOR MONITORING IMMUNOSUPPRESSANT DRUG LEVELS, RENAL FUNCTION, AND HEPATIC FUNCTION USING SMALL VOLUME SAMPLES” (priority 2008, published 2012).
Where two headings read alike, the source gives them in different places.

Conditions: human, in vivo
Description: The patient collected an approximately 500 μL blood sample from a fingerstick. The small volume blood sample was collected as described above, using a K2-EDTA collection tube, and timely transported to the testing facility. At the testing facility, the whole blood sample in K2-EDTA was split into 3 fractions: (1) 50 μL for immunosuppressant drug monitoring using tandem mass spectrometry, (2) 50 μL for complete blood count by flow cytometry, and (3) the remainder for various other tests.
The first fraction was prepared by adding 200 μL of ZnSO4 (zinc sulfate) to the fraction, and the cells were lysed by vortexing for 10 seconds. Then 500 μL of a solution containing acetonitrile and internal reference standards (ascomycin: 2 nanograms (ng)/ml, along with cyclosporin D 25 ng/ml) was added, and the sample was mixed by vortexing for 20 seconds. The tubes were then spun down for 4 minutes at 14,000×g (14,000 times gravity). The supernatant was decanted into vials for assay by mass spectrometry.
The patient collected an approximately 500 μL blood sample from a fingerstick. The small volume blood sample was collected using a K2-EDTA collection tube, transported to the testing facility, and divided into three fractions as described above. Each fraction was prepared as described above for the adult patient, and the same immunosuppressant drug monitoring of immunosuppressants, complete blood count, assays for renal function, and assays for hepatic function were performed.

Result (blood level) (female) | Result (blood level) (male) | SMILES
3.10 µg/L | 5.10 µg/L | CO[C@H]1C[C@@H]2CC[C@@H](C)[C@@](O)(O2)C(=O)C(=O)N2CCCC[C@H]2C(=O)O[C@H]([C@H](C)C[C@@H]2CC[C@@H](O)[C@H](OC)C2)CC(=O)[C@H](C)/C=C(\C)[C@@H](O)[C@@H](OC)C(=O)[C@H](C)C[C@H](C)/C=C/C=C/C=C/1C [Rapamycin]
10.80 µg/L | 6.80 µg/L | C=CC[C@@H]1/C=C(\C)C[C@H](C)C[C@H](OC)[C@H]2O[C@@](O)(C(=O)C(=O)N3CCCC[C@H]3C(=O)O[C@H](/C(C)=C/[C@@H]3CC[C@@H](O)[C@H](OC)C3)[C@H](C)[C@@H](O)CC1=O)[C@H](C)C[C@@H]2OC [Tacrolimus]
